Values of other authors in patent US6562869B1, “Nutritional supplement for increased energy and stamina” (Juvenon, Inc., priority 1999, dated 2003).
Where two headings read alike, the source gives them in different places.

What was measured:
[1] = tested on: oxidative phosphorylation in skeletal muscles and brains; conditions: patients with mitochondrial cytopathies due to enzyme defects
senescent myocardium = conditions: rats
apoptosis = conditions: through its action in the mitochondria
[2] = design: dose or concentration left out as unconfirmed; conditions: woman deficient in Q10
[3] = tested on: human plasma LDL phospholipids; conditions: healthy Finnish men and women aged 28-77, supplementation
striatal nerves = conditions: Q10 diet four weeks before and one week after MPTP
[4] = daily up to 200 mg for 6 to 12 months and 100 mg daily for up to 6 years
male mice = conditions: life-long supplementation
oxidant production = conditions: carnitine supplementation
[5] = tested on: carnitine-acyl-carnitine exchange across the inner mitochondrial membrane
skeletal muscle = conditions: older individuals aged 40-73, 20 g/day, one week
[6] = men over 60, 5 days
[7] = older adults 67-80 years, 8 weeks

## COC1=C(OC)C(=O)C(C/C=C(\C)CC/C=C(\C)CC/C=C(\C)CC/C=C(\C)CC/C=C(\C)CC/C=C(\C)CC/C=C(\C)CC/C=C(\C)CC/C=C(\C)CCC=C(C)C)=C(C)C1=O [Example Q10, Coenzyme Q10]
Human atrial tissue
  tolerance of the senescent myocardium to aerobic and ischemic stress: improves the tolerance
[1]
  oxidative phosphorylation in skeletal muscles and brains: marked improvement
Senescent myocardium
  tolerance of the senescent myocardium to aerobic and ischemic stress: improves the tolerance
Cardiac tissue; cardiac tissue
  effects of doxorubicin: blocks the effects of doxorubicin
apoptosis
  programmed cell death, or apoptosis: appears to block
Heart functions; old rats
  heart functions: improve heart functions
Heart functions; young rats
  heart functions: not significantly affect
[2]
  clinical response: rapidly improved
[3]
  peroxyl radical trapping capacity: doubled
Striatal nerves
  dopamine, higher than control diet: 37%
  more dense neurons than control diet: 62%
[4]
  adverse effects: No important adverse effects
Male mice
  lifespan: did not prolong or shorten
Male rats; Q10 supplementation
  Q10 levels in kidney, heart and brain: not affected
Male rats; life-long supplementation, rats
  lifespan: did not prolong or shorten
Male rats; supplemented rats
  plasma and liver Q10 levels: 2.6-8.4 times higher

## COc1cccc2c1C(=O)c1c(O)c3c(c(O)c1C2=O)C[C@@](O)(C(=O)CO)C[C@@H]3O[C@H]1C[C@H](N)[C@H](O)[C@H](C)O1 [doxorubicin]
Cardiac tissue
  mitochondrial oxidant production: stimulates
Cardiac tissue; cardiac tissue
  mtDNA deletions in cardiac tissue: marked increase

## C[N+](C)(C)CC(O)CC(=O)[O-] (centres unmarked) [carnitine]
Oxidant production
  cell antioxidants: decreased cell antioxidants markedly
  oxidant production increase: 30%

## CC(=O)O[C@H](CC(=O)[O-])C[N+](C)(C)C [acetyl-L-carnitine]
[5]
  age-related dysfunction of carnitine-acyl-carnitine exchange: slow or reverse

## COc1c(O)c(C)c(C/C=C(\C)CC/C=C(\C)CC/C=C(\C)CC/C=C(\C)CC/C=C(\C)CC/C=C(\C)CC/C=C(\C)CC/C=C(\C)CC/C=C(\C)CCC=C(C)C)c(O)c1OC [ubiquinol-10]
Human lymphocytes
  oxidative damage to DNA of human lymphocytes: appears to protect

## C[N+](C)(C)C[C@H](O)CC(=O)[O-] [L-carnitine]
[5]
  age-related dysfunction of carnitine-acyl-carnitine exchange: slow or reverse

## CN(CC(=O)O)C(=N)N [creatine]
Skeletal muscle
  skeletal muscle strength and endurance: increased
About 1.5 g/day to about 25 g/day for at least a year
  safety: safe
athletes, doses up to 75 grams a day for years, aside from weight gain
  adverse effects: without known adverse effects
[6]
  isokinetic performance and body mass: only small increases
  isometric strength: no effect
Phosphocreatine (PCr); both groups combined
  time to exhaustion: increased
Phosphocreatine (PCr); middle-aged group (50-year-olds), P<0.05
  resting PCr increase: 30%
Phosphocreatine (PCr); middle-aged group, P<0.05
  mean initial PCr resynthesis rate: increased significantly
Phosphocreatine (PCr); young group (30-year-olds), P<0.05
  resting PCr increase: 15%
[7]
  1- and 12-repetitions maxima, effect of creatine supplementation: no beneficial effect

## O=C(O)CCCC[C@@H]1CCSS1 [R-α-lipoic acid]
Aged rats; aged rats
  ambulatory activity of aged rats: triple
Aged rats; supplementation
  age-related decline in mitochondrial membrane potential: restore
  age-related decrease in oxygen consumption: reverse
  age-related increase in oxidants: significantly lower
  glutathione and ascorbic acid levels: to youthful levels
